Entries after “also recorded” stand apart in the source; their conditions may differ. Read-outs that look alike come from different tables or passages of the source.
Tests used:
WT EGFR [1] = molecular target: T1, WT EGFR (Homo sapiens, UniProt P00533); assay: In vitro TR-FRET assay, WT EGFR; format: binding; conditions: for WT EGFR pIC50: Table S1, TR FRET, n=1, 2 technical replicates
WT EGFR [2] = molecular target: T1, WT EGFR; assay: Protein mass spectrometry after incubation of compound with EGFR; format: binding; conditions: for adduct formation with EGFR / release of 5FU from EGFR adduct: 15 μM compound, 4 μM EGFR, 4 hr; for adduct formation with EGFR: ambient temperature; for release of 5FU from EGFR adduct: protein mass spectrometry; for mass increase of adduct after loss of 5FU / mass increase of initial (intact) adduct: relative to apo protein
Procedure: Compounds were suspended in 10 mM in 100% DMSO and were added to 4 μM of EGFR to achieve the final compound concentration of 15 μM in 1% DMSO, in 25 mM Tris pH 8, 150 mM NaCl, 5% Glycerol before incubating at an ambient temperature for 4 hr time prior to analysis.
Following incubation, intact protein masses were determined using an Agilent 6530 Accurate Mass dual AJS/ESI Q-TOF instrument coupled to an Agilent 1260 Infinity II LC system. 1 μL of purified protein (∼1 mg/mL) was injected onto an MS Pac DS-10 Desalter cartridge ((Thermo Fisher Scientific), PN: 089170, 2.1 × 10 mm) for desalting and reversed phase separation at 70 °C. The mobile phase was 0.1% (v/v) formic acid in LC-MS grade water (A) and LC-MS grade acetonitrile (B) with separation performed over 7.5 min. […] Proteins were detected in positive ion mode using electrospray ionization with a nebulizer pressure of 45 psig, a drying gas flow of 5 L/min, and a source gas temperature of 325 °C. A sheath gas temperature of 400 °C, a gas flow of 11 L/min, a capillary voltage of 3500 V, and a nozzle voltage of 2000 V were also used. Mass spectra were acquired using MassHunter Acquisition software (version B.08.00) over a mass range of 100–3000 m/z at a rate of 1 spectra/s and 1000 ms/spectrum in the standard mass range (3200 m/z) at 2 GHz. The instrument had been calibrated over the selected mass range prior to analysis.

DM EGFR = assay: In vitro TR-FRET assay, DM EGFR; format: binding
[3] = 19F NMR 5FU release study with N-acetyl-L-cysteine methyl ester; format: physicochemical; conditions: reaction with N-acetyl cysteine
Procedure: Reaction of the model systems with N-acetyl-L-cysteine methyl ester was assessed by ^19F NMR.
Acrylate-5FU conjugate (0.125 M) in d^6-DMSO (0.25 mL) was prepared in an NMR tube. N-Acetyl cysteine methyl ester (1.9 mg, 0.011 mmol) or glutathione (3.4 mg, 0.011 mmol) in d^6-DMSO was prepared. The cysteine/glutathione solution was added to the NMR tube, and the tube was inverted several times. The ^19F NMR was taken immediately for t = 0 measurement. Further measurements were taken at t = 30 min and t = 60 min.

[4] = test system: pEGFR (Tyr1068) in A431 cells; assay: Cellular pEGFR inhibition by HTRF (A431); format: cell-based; conditions: for pEGFR pIC50: Figure 5a; for IC50: Homo sapiens, A-431, Figure 5a, read-out: pEGFR pIC50 (converted)
Procedure: Cells were plated at 20 000 cells per well in 96-well plates and placed at 37 °C with 5% CO2. […] Compound and media were removed from the cells, and then 50 μL of HTRF lysis buffer was added (lysis buffer was diluted from 4× stock to 1× in deionized (DI) water, with 1% blocking agent also added). Cells were lysed on a plate shaker (2000 rpm) for 30 min at room temperature. pEGFR expression was monitored using the Cisbio Phospho-EGFR (Tyr1068) cellular kit (64EG1PEH). Total EGFR expression was monitored using the Cisbio Total EGFR cellular kit (64NG1PEH) as per the manufacturer’s instructions. […] Results were calculated as the ratio of pEGFR/total EGFR and then the percentage of 0 μM control.

[5] = test system: EGFR phosphorylation in A431 cells; assay: pEGFR inhibition by Western blot in A431; format: cell-based; conditions: 4 h
Procedure: Appropriately treated cells were lysed in Phosphosafe extraction buffer combined with cOmplete Protease Inhibitor Cocktail (Merck) prepared as per the manufacturer’s instructions.
Samples were prepared in Eppendorf vials by diluting them to the required concentrations with phosphate-buffered saline (PBS), and the appropriate amount of 4X XT sample buffer was added. This solution was vortexed, centrifuged, then placed at 98 °C for 5 min, and then centrifuged to remove the residue. Migration was performed using a 4–20% Criterion TGX Precast Midi Protein Gel, 18 well, 30 μL (Cat. No. 5671094) placed in a Criterion running tank (Cat. No. 1656001) and also using PowerPac HC high-current power supply (Bio-Rad) electrodes. Nitrocellulose membrane used was an Amersham Protran Premium 0.45 Nitrocellulose membrane (Cat. No. 15269794) and Ponceau S Stain (Sigma-Aldrich Cat. No. p7170).
Primary antibodies raised to EGFR (CST 4267) or pEGFR (CST 3777) were diluted (1:1000) in 5% BSA w/v. Loading control antibodies were prepared in 5% milk w/v with 1 × TBS/T (0.1 v/v) solution at a determined optimum concentration.
Secondary HRP-conjugated antibodies were diluted in 5% milk with w/v in 1 × TBS/T (0.1 v/v) solution at a determined optimum concentration.
Proteins were detected using the Clarity ECL Western blotting substrate (Bio-Rad).

[6] = Compound media stability (LC-MS); format: physicochemical; conditions: DMEM + 10% FCS, 1.0 μM, 25 h
Procedure: Compound 53 (0.760 mg, 1.51 μmol) was dissolved in DMSO […] and then added to DMEM (Sigma-Aldrich 5796) + 10% FCS media (1.50 mL) such that the final concentration was 1.0 μM. Liquid chromatography-mass spectrometry (LC-MS) analysis was carried out at t = 0, 1, 3, and 25 h.

A431 cells = assay: Growth inhibition in adherent cell lines (SRB, 72 h); format: cell-based; conditions: for GI50: Homo sapiens, A-431, 72 h
Procedure: On day 1, the compounds were diluted to the required concentration in DMEM +10% FBS media, ensuring that the final DMSO concentration was 0.1% once added to cells. […] Cells were then fixed by adding 50% (wt/vol) TCA to each well of the plate and left at 4 °C for 1 h. The plates were then washed thoroughly with water, 100 μL of 0.4% SRB solution was added to the wells, and left at room temperature for 30 min. The plates were rinsed with 1% AcOH and then left to air-dry in a drying cabinet for 1 h. […] The absorbance was read at 570 nm using a FluoStar Omega plate reader.

[7] = Table S1, TR FRET, n=1, 2 technical replicates
[8] = WT EGFR, TR-FRET, n > 2, Figure 5a and text
[9] = A431 cell viability, 72 h, Figure 5c
[10] = A431 cell viability, 72 h, Figure 6b, single agents and equimolar combination

2-Fluoro-4-methoxy-5-((4-(1-methyl-1H-indol-3-yl)pyrimidin-2-yl)amino)phenyl (E)-3-(5-fluoro-2,4-dioxo-3,4-dihydropyrimidin-1(2H)-yl)acrylate [compound 35]
WT EGFR pIC50 (WT EGFR [1]): < 4.0
adduct formation with EGFR (WT EGFR [2]): evidence of adduct formation
release of 5FU from EGFR adduct (WT EGFR [2]): without evidence of the release of 5FU
DM EGFR pIC50 (DM EGFR; [7]): 5.5

3-((4-(1-Methyl-1H-indol-3-yl)pyrimidin-2-yl)amino)-4-nitrophenyl (E)-3-(5-Fluoro-2,4-dioxo-3,4-dihydropyrimidin-1(2H)-yl)acrylate [compound 39]
WT EGFR pIC50 (WT EGFR [1]): < 4.0
adduct formation with EGFR (WT EGFR [2]): evidence of adduct formation
release of 5FU from EGFR adduct (WT EGFR [2]): without evidence of the release of 5FU
DM EGFR pIC50 (DM EGFR; [7]): 3.7

4-((3-Chloro-4-fluorophenyl)amino)-7-methoxyquinazolin-6-yl (E)-3-(5-fluoro-2,4-dioxo-3,4-dihydropyrimidin-1(2H)-yl)acrylate [compound 53]
EGFR pIC50 (WT EGFR [1]; [8]): 6.8
time to complete release of 5FU [3]: 1 h
pEGFR pIC50 [4]: 7.8
inhibition of EGFR phosphorylation at 1 μM [5]: not at 1 μM
inhibition of EGFR phosphorylation at 10 μM [5]: marked inhibition
hydrolysis in cell media [6]: some hydrolysis did occur
release of 5FU in cell media [6]: no observation of the release of 5FU
adduct formation with EGFR (WT EGFR [2]): two new major adducts
release of 5FU from EGFR adduct (WT EGFR [2]): loss of 5FU from the complex
mass increase of adduct after loss of 5FU (WT EGFR [2]): 372 Da
mass increase of initial (intact) adduct (WT EGFR [2]): 502 Da
pGI50 (A431 cells; [9]): 5.3

O=c1[nH]cc(F)c(=O)[nH]1 [5-FU, 5-fluorouracil, reference compound]
GI50 (A431 cells; A431 cell viability, 72 h, Figure 6a, single agents and equimolar combination): 631 nM
GI50 (A431 cells; [10]): 631 nM

COc1cc2ncnc(Nc3ccc(F)c(Cl)c3)c2cc1NC(=O)/C=C/CN1CCCCC1 [compound 2, dacomitinib, reference compound]
IC50 [4]: 10 nM
GI50 (A431 cells; [9]): 79.4 nM

COc1cc2ncnc(Nc3ccc(F)c(Cl)c3)c2cc1OC(=O)/C=C/CN1CCCCC1 [compound 56, 4-((3-Chloro-4-fluorophenyl)amino)-7-methoxyquinazolin-6-yl (E)-4-(piperidin-1-yl)but-2-enoate]
EGFR pIC50 (WT EGFR [1]; supplementary CSV column): 8.1 +/- 0.82
IC50 [4]: 5010 nM
inhibition of EGFR phosphorylation at 1 μM [5]: some inhibition
GI50 (A431 cells; [9]): > 10000 nM
GI50 (A431 cells; [10]): 10000 nM

(E)-1-(3-(3-((4-((3-Chloro-4-fluorophenyl)amino)-7-methoxyquinazolin-6-yl)oxy)azetidin-1-yl)-3-oxoprop-1-en-1-yl)-5-fluoropyrimidine-2,4(1H,3H)-dione [compound 48]
WT EGFR pIC50 (WT EGFR [1]): 6.6
adduct formation with EGFR (WT EGFR [2]): covalent adduct formation
release of 5FU from EGFR adduct (WT EGFR [2]): without evidence of the release of 5FU
DM EGFR pIC50 (DM EGFR; [7]): 6.7

(E)-1-(3-(4-((4-((3-Chloro-4-fluorophenyl)amino)-7-methoxyquinazolin-6-yl)oxy)piperidin-1-yl)-3-oxoprop-1-en-1-yl)-5-fluoropyrimidine-2,4(1H,3H)-dione [compound 51]
WT EGFR pIC50 (WT EGFR [1]): 6.6

(E)-N-(3-((5-Chloro-4-(pyrazolo[1,5-a]pyridin-3-yl)pyrimidin-2-yl)amino)-4-methoxyphenyl)-3-(5-fluoro-2,4-dioxo-3,4-dihydropyrimidin-1(2H)-yl)acrylamide [compound 30]
WT EGFR pIC50 (WT EGFR [1]): 5.7
adduct formation with EGFR (WT EGFR [2]): an adduct formed
release of 5FU from EGFR adduct (WT EGFR [2]): without 5FU release; also recorded: no evidence of the release of 5FU
mass increase of initial (intact) adduct (WT EGFR [2]): 548 Da
DM EGFR pIC50 (DM EGFR): 6.8

(E)-N-(4-((3-Chloro-4-fluorophenyl)amino)-7-methoxyquinazolin-6-yl)-3-(5-fluoro-2,4-dioxo-3,4-dihydropyrimidin-1(2H)-yl)acrylamide [compound 57]
EGFR pIC50 (WT EGFR [1]; [8]): 7.3
pEGFR pIC50 [4]: 5.6
inhibition of EGFR phosphorylation at 10 μM [5]: little inhibition
adduct formation with EGFR (WT EGFR [2]): clear adduct
release of 5FU from EGFR adduct (WT EGFR [2]): negligible release of 5FU
mass increase of adduct after loss of 5FU (WT EGFR [2]): 371 Da
mass increase of initial (intact) adduct (WT EGFR [2]): 501 Da
antiproliferative effect (A431 cells; A431, 72 h growth inhibition): no antiproliferative effects
pGI50 (A431 cells; supplementary CSV column): <5.0

(R, E)-1-(3-(3-((4-((3-Chloro-4-fluorophenyl)amino)-7-methoxyquinazolin-6-yl)oxy)pyrrolidin-1-yl)-3-oxoprop-1-en-1-yl)-5-fluoropyrimidine-2,4(1H,3H)-dione [compound 49]
WT EGFR pIC50 (WT EGFR [1]): 5.6
DM EGFR pIC50 (DM EGFR; [7]): 6.4

(S, E)-1-(3-(3-((4-((3-Chloro-4-fluorophenyl)amino)-7-methoxyquinazolin-6-yl)oxy)pyrrolidin-1-yl)-3-oxoprop-1-en-1-yl)-5-fluoropyrimidine-2,4(1H,3H)-dione [compound 50]
WT EGFR pIC50 (WT EGFR [1]): 5.9
DM EGFR pIC50 (DM EGFR; [7]): 6.6

From article PMC10510387, “Targeting Cytotoxic Agents through EGFR-Mediated Covalent Binding and Release” (Journal of Medicinal Chemistry, 2023)
